Data published in ChEMBL document CHEMBL3638579, “Arylamino purine derivatives, preparation method and pharmaceutical use thereof” (2015).

Target: Vascular endothelial growth factor receptor 2 (Homo sapiens, UniProt P35968)
Test: Inhibition Assay: The object of this assay was to test the inventive compounds for the kinase inhibitory activity in vitro. In this assay, an isotopic labeling method was used to label the gamma phosphate group on ATP. EGFR (including wild type, L858R mutant type and L858R/T790M double mutant type), VEGFR2, ALK, BTK, c-KIT, c-SRC, MET, PDGFRalpha and FLT3 kinases were tested in vitro for the activity inhibition. Staurosporine was used as a reference molecule (or referred to as a positive control). […] The IC50 value can be obtained by the calculation of the inhibitory rates at a series of different concentrations of the tested compounds. 1. Materials: 20mM 3-(N-morpholinyl)propylsulfonic acid (MOPS); 1mM Ethylenediaminetetraacetic acid (EDTA); 0.01% Polyethylene glycol lauryl ether (Brij-35).

Sequence of Vascular endothelial growth factor receptor 2 (P35968 20-1356 limits assumed, stated change not applied): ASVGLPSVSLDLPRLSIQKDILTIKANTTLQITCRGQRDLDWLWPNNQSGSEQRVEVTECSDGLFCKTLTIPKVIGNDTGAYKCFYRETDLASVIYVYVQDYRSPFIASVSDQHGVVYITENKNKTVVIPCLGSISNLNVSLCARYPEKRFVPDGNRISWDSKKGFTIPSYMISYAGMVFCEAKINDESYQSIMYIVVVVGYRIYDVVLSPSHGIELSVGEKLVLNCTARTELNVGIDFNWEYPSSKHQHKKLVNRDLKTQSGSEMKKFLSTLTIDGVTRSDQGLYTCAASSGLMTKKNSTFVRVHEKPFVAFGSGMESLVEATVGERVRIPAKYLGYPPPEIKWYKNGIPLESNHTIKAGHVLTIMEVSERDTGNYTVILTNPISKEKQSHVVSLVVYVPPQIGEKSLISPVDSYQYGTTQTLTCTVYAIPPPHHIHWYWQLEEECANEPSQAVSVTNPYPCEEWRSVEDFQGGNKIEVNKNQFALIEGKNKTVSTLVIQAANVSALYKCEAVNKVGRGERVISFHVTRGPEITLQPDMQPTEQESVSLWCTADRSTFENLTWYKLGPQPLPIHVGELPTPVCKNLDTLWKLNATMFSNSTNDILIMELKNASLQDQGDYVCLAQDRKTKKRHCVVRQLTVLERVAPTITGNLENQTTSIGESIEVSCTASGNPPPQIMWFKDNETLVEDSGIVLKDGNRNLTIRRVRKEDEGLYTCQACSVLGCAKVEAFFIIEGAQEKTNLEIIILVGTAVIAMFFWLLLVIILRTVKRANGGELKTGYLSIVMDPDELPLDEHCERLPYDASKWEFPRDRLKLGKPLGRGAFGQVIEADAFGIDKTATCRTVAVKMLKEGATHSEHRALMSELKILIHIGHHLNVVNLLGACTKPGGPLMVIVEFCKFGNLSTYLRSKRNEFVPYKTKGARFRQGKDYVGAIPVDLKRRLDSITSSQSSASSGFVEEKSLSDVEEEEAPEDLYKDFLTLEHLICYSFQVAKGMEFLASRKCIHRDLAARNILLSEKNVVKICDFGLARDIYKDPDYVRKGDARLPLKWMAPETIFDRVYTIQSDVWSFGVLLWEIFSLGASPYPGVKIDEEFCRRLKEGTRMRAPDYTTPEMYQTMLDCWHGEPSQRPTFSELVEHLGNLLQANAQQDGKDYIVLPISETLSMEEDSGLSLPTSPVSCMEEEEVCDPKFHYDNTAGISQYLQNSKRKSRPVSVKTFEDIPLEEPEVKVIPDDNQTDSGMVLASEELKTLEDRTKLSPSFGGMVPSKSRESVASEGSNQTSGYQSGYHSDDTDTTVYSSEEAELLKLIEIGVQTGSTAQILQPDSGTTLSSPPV

## CC(C)n1c(Nc2ccccc2)nc2cnc(Nc3ccc(C(=O)NN4CCN(C)CC4)cc3F)nc21
  IC50: > 1000 nM
